The test system of the assay is KM12 cells. In words: Proliferation of KM12 cells (CellTiter-Glo). Type of assay: cell-based, human. To be noted: Homo sapiens. The text has this: KM12 is a human colon cancer cell line in which NTRK1 is highly expressed, and gene fusion occurs with TPM3 to form TPM3-NTRK1. • [Test method]: Promega's CellTiter-Glo® Luminescent Cell Viability Assay kit was used to evaluate the inhibitory activity of the compounds on the proliferation of KM12 cells. • [Instrument]: Spectramax M3 multifunctional microplate reader from Molecular Devices. • [Test materials]: KM12 cell line (ATCC, item number CRL-12496), 96-well transparent flat-bottomed black-walled cell culture plate (Corning, item number #3603), RPMI-1640 media (GE, cat #SH30027.01), Fetal Bovine Serum FBS (Thermo Fisher, cat #10099-141), CellTiter-Glo® Luminescent Cell Viability Assay Kit (Promega, cat #G7572), PBS (Solarbio, cat #P1020), Trypsin (Thermo Fisher, cat #25200072), DMSO (Sigma, cat #D2650). • [Experimental procedure]: When resuscitating KM12 cells, the freezing tube was quickly shaken in a 37° C. water bath to melt within 1 minute. The thawed cell suspension was mixed uniformly with RPMI1640 medium containing 10% FBS, centrifuged at 1000 rpm for 5 minutes, and the supernatant discarded. 5 mL of complete medium (RPMI1640 medium with 10% FBS) was taken to resuspend the cell pellets, charged into a cell culture flask with a bottom area of 25 cm^2, and incubated in a cell incubator at 37° C., 95% humidity and 5% CO2. Cells were allowed to passage when the cell confluence rate reached about 80%. For cell passage, the old medium was discarded, and the cells were washed twice with PBS, and 0.5 mL trypsin was added to digest the cells. Upon dispersing into single cells and exfoliating from the bottom of the cell culture flask, 4.5 mL of new complete medium was added to terminate the digestion. After pipetting the cell suspension evenly, 1/5 of the cell suspension was kept and added with 4 mL of new complete medium, and after pipetting evenly, the cell flask was placed in the cell incubator for further culturing. Cell plating was performed when the cell confluence rate reached about 80% again. For cell plating, 1/5 of the cell suspension was kept for further culturing as in the cell passage method, and the remaining 4/5 of the cell suspension was placed in a 15 mL centrifuge tube, detected for cell viability by Trypan blue exclusion method to ensure that cell viability was above 90%. A cell suspension with a density of 3.33×10^4 viable cells/mL was prepared with complete medium, and 90 μL of such cell suspension was added to a 96-well cell culture plate to obtain a cell density of 3000 viable cells/mL in the cell culture plate. A control group containing no cells, no compound and only complete medium (i.e. culture medium control) and a control group containing no compound but containing cells (i.e. cell control) were set. The cell plate was placed in a cell incubator overnight.
The 10 mM compound stock solution in DMSO was first serially diluted with DMSO at a dilution factor of 3.16 times, to obtain 9 concentrations, and the 10th concentration was set as DMSO control without compound. Then, PBS was used to dilute the DMSO solutions of compounds of different concentrations, at a dilution factor of 100 times, so that the DMSO concentration in the compound solution of each concentration was 1%. Finally, 10 μL of each of the above solutions was added to the corresponding cell culture plate, so that the initial compound concentration was 10 μM, with the remaining concentrations being successively diluted at a dilution factor of 3.16 times, and the DMSO content in the cell culture plate was 0.1%.
The cell plate was placed in a cell incubator and cultured for 72 hours. For endpoint detection, the CellTiter-Glo reagent was melted, and the cell plate was moved to room temperature to equilibrate for 30 minutes, added with 100 μL of CellTiter-Glo for each well, and shaken on an orbital shaker for 5 minutes to fully lyse the cells. […]
In general terms: Cellular ATP, detected with luciferase, serves as a proxy for viable cell number.

The mark [1] stands for this setting: KM12, 72 h, Table 1, 72 hours, read-out: KM-12, IC50.

Read-outs that look alike come from different tables or passages of the source.

As to `CC(C)Oc1ccc(C(=O)Nc2ccc(Oc3cc4cnn5c4c(c3-c3cn[nH]c3)CC5)c(F)c2)c(=O)n1-c1ccc(F)cc1` [Example 34, N-(4-((5-(1H-pyrazol-4-yl)-6,7-dihydropyrrolo[3,2,1-hi]-indazol-4-yl)oxy)-3-fluorophenyl)-1-(4-fluorophenyl)-6-isopropoxy-2-oxo-12-dihydropyrndine-3-carboxamide], the IC50 (KM12, Table 9, read-out: KM12 cell proliferation inhibitory activity (IC50)) was determined as 37 nM.

Consider `O=C(Nc1cnn2ccc(N3CCC[C@@H]3c3cc(F)ccc3F)nc12)N1CC[C@H](O)C1` [LOXO-101, Larotrectinib, reference compound], for which, under setting [1], the IC50 is 8.3 nM.

For the compound `Cc1ccc(C(=O)Nc2ccc(Oc3cc4cnn(C)c4cc3-c3cn[nH]c3)c(F)c2)c(=O)n1-c1ccc(F)cc1` [Merestinib, reference compound], the IC50 under setting [1] was 8.7 nM; the IC50 (KM12, Table 1-1, separate test, read-out: KM-12, IC50) amounted to 33 nM; the IC50 (KM12, Table 1-2, separate test, read-out: KM-12, IC50) stood at 59 nM; the IC50 (KM12, Table 1-3, separate test, read-out: KM-12, IC50) is 27 nM.

The values above are taken from patent publication US11952364B2, “TRK inhibitors useful as anticancer drugs” (TYLIGAND BIOSCIENCE (SHANGHAI) LIMITED, priority 2018, dated 2024).
